Reference: patent publication US11208642B2, “Microbial syringol utilization” (Alliance for Sustainable Energy, LLC, priority 2018, dated 2021)

Columns and labels:
GcoA-F169A = target: T1, GcoA-F169A (Amycolatopsis sp., UniProt P0DPQ7, F169A/H210Q); assay: Rate of aromatic substrate disappearance by discontinuous HPLC; type: biochemical; conditions: GcoA-F169A/GcoB, substrate disappearance over time
T1 construct: GST (N, cleaved yes); made in house; host or cells: E. coli Rosetta 2 (DE3)
Procedure: To address whether guaiacol and/or syringol would serve as substrates of GcoA-F169A, the disappearance of NADH (UV/vis) and aromatic substrate (HPLC) was monitored over time (FIG. 1). The rates of organic substrate and NADH consumption were robust and the same within error, regardless of whether guaiacol or syringol was used (5.3±0.3 μM guaiacol s^−1 μmol GcoA-F169A^−1, 5.8±0.8 μM NADH s^−1 μmol GcoA-F169A-1; 4.1±0.3 μM syringol s^−1 μmol GcoA-F169A^−1, 5.1±0.8 μM NADH s^−1 μmol GcoA-F169A^−1).
HPLC for product identification and specific activity measurement. HPLC was used to verify the O-demethylated product of GcoA-F169A GcoA/GcoB with guaiacol, syringol, or 3MC. In addition, discontinuous HPLC was used to determine the specific activity of aromatic […] disappearance.
Analyte analysis of the above end-point reactions (100 μM guaiacol, syringol, or 3MC, or 200 μM syringol) was performed on an Agilent 1100 LC system (Agilent Technologies) equipped with a G1315B diode array detector (DAD). Each sample and standard was injected at a volume of 10 μL onto a Symmetry C18 column 5 μm, 4.6×150 mm column (Waters). The column temperature was maintained at 30° C. and the buffers used to separate the analytes of interest was 0.01% TFA in water (A)/acetonitrile (B). The separation was carried out using a gradient program of: (A)=99% and (B)=1% at time t=0 min; (A)=99% and (B)=1% at time t=2 min, (A)=50% and (B)=50% at t=8 min; (A)=1% and (B)=99% at t=8.01 min; (A)=99% and (B)=1% at t=10.01 min; (A)=99% and (B)=1% at t=11 min. The flow rate was held constant at 1.5 mL min^−1, resulting in a run time of 11 minutes. DAD wavelengths of 210 and 325 nm were used for analysis of the analytes of interest. […] Integrated intensities vs [standards] were plotted and the resulting standard curves used to quantify the reactants and products.
For specific activity determination, 300 μM guaiacol, syringol, or 3MC were added from 0.1 M DMSO stocks to air saturated buffer (25 mM HEPES, 50 mM NaCl, pH 7.5), with a final volume of 1 mL. The concentration of analyte was measured via the above HPLC method. […]

GcoA-F169A and GcoB = target: T2, GcoA-F169A and GcoB (Amycolatopsis sp., UniProt P0DPQ7, F169A/H210Q); assay: Uncoupling reactions: endpoint formaldehyde referenced to NADH consumed; type: biochemical; conditions: for % Formaldehyde produced: referenced to NADH consumed; for Coupling efficiency: GcoA-F169A-catalyzed reaction
T2 construct: GST (N, cleaved yes); made in house; host or cells: E. coli Rosetta 2 (DE3)
Procedure: The ^a in Table 3 notes that 0.2 μM GcoA-F169A and GcoB were reacted with 100 μg catalase, 100 or 200 μM NADH, and 100 μM substrate in 25 mM HEPES, 50 mM NaCl, pH 7.5, 25° C., 210 μM O2. Endpoint analyses were done to quantify formaldehyde produced, which was then referenced to NADH consumed. The ^b in Table 3 notes that the same reaction done above was repeated to quantify H2O2 produced using the Amplex Red/HRP assay. The amount of hydrogen peroxide was then referenced to NADH consumed.
Formaldehyde determination. A colorimetric assay using tryptophan can be used to quantify the amount of formaldehyde produced in F169 GcoA/B reactions with guaiacol, syringol, or 3MC. 0.2 μM each of F169 GcoA mutants and GcoB were dissolved in air-saturated buffer (25 mM HEPES, 50 mM NaCl) in a cuvette at pH 7.5, 25° C. 100 μg/mL catalase was added to each reaction to capture any H2O2 formed during the uncoupled reaction. Two hundred μM NADH was added and the background rate recorded. One hundred (guaiacol, syringol, or 3MC) or 200 (syringol) μM of substrate was then added and the reaction monitored until there was no more change, due to either substrate, NADH or O2 depletion, whichever occurred first. 200 μL of the reaction was then quenched by adding 200 μL of a 0.1% tryptophan solution in 50% ethanol and 200 μL of 90% sulfuric acid. Upon thorough mixing, 40 μL of 1% FeCl3 was added. The solution was then incubated in a heating block for 90 min at 70° C. After cooling, the absorbance was read at 575 nm and the concentration of formaldehyde was calculated by using ε575 nm=4.2 mM^−1 cm^−1, obtained with formaldehyde as a standard. A negative control included everything but the substrate and was used as a baseline.

T1 sequence (P0DPQ7 whole entry F169A/H210Q): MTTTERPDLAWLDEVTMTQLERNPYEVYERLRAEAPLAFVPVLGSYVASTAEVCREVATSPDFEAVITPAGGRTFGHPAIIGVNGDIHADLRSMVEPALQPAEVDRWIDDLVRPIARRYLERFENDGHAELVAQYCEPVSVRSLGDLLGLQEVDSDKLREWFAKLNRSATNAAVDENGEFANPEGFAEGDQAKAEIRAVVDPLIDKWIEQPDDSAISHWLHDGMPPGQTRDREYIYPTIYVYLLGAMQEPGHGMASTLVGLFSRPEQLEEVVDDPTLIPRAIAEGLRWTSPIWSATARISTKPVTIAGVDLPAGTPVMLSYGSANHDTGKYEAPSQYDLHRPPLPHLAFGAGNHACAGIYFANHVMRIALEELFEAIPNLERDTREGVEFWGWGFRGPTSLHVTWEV
T2 sequence (P0DPQ7 whole entry F169A/H210Q): as above

Compound	Rate of organic substrate consumption (HPLC) (GcoA-F169A)	% Formaldehyde produced (GcoA-F169A and GcoB; 100 μM substrate + 100 μM NADH) [%]	Coupling efficiency (GcoA-F169A and GcoB) [%]	% Formaldehyde produced (GcoA-F169A and GcoB; 100 μM substrate + 200 μM NADH) [%]
COc1cccc(O)c1O [3MC, 3-methoxycatechol]	2.6±0.3 μM s^−1 μmol GcoA-F169A^−1	52 ± 7	64±10	–
COc1cccc(OC)c1O [syringol, 2,6-dimethoxyphenol]	4.1±0.3 μM s^−1 μmol GcoA-F169A^−1	125 ± 6	–	91 ± 8
COc1ccccc1O [guaiacol, 2-methoxyphenol]	5.3±0.3 μM s^−1 μmol GcoA-F169A^−1	100 ± 10	91±8	–
